Values of other authors, collected in US20130171237A1, “ARIPIPRAZOLE COMPOSITIONS AND METHODS FOR ITS TRANSDERMAL DELIVERY” (priority 2010, published 2013).

- solubility in water: practically insoluble in water
Structure (SMILES): O=C1CCc2ccc(OCCCCN3CCN(c4cccc(Cl)c4Cl)CC3)cc2N1 [ARPZ, Aripiprazole]
